Test results as given in patent US10988459B2 (priority 2015, dated 2021).

biological target: human RIP1 kinase domain (2-375) (Homo sapiens (Human), UniProt Q13546); test: biochemical; type: biochemical; settings: Table 3; apparent Ki (Morrison tight-binding fit); 50 nM RIP1 kinase domain, 50 uM ATP, 2 hours incubation; read-out: Ki
How it was run: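 Ki^app comes from Morrison tight-binding fits of fractional activity versus compound concentration. Activity was read as ADP production, via tracer displacement lowering fluorescence polarization (633 nm laser). Conditions: 2 h, 50 nM insect-cell-expressed enzyme, 50 uM ATP, 30 mM MgCl2, 1 mM DTT, 0.5% DMSO, pH 7.5 Hepes.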

Sequence of human RIP1 kinase domain (2-375) (Q13546 2-375): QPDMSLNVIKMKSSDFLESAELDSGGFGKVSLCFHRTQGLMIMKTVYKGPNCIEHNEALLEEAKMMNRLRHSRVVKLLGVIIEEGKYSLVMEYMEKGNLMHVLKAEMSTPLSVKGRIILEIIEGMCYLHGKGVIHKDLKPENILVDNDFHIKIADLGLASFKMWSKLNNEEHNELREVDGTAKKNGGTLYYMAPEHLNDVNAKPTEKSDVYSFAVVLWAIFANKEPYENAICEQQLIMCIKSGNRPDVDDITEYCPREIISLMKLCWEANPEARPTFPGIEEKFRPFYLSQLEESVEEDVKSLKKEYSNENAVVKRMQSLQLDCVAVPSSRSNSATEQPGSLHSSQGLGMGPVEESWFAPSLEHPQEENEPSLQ

With `CN1C(=O)[C@@H](NC(=O)c2ncn3ccc(C(F)(F)F)cc23)CCn2nccc21` [Example 336, (S)-N-(4-methyl-5-oxo-5,6,7,8-tetrahydro-4H-pyrazolo[1,5-a][1,3]diazepin-6-yl)-7-(trifluoromethyl)imidazo[1,5-a]pyridine-1-carboxamide] the Ki was 231 nM.

same assay, conditions: Table 5; apparent Ki (Morrison tight-binding fit); 50 nM RIP1 kinase domain, 50 uM ATP, 2 hours incubation; read-out: Ki

Molecule `COC1CN(CCc2cc3n(n2)CC[C@H](NC(=O)c2ncn(Cc4ccccc4F)n2)C(=O)N3C)C1` [Example 771, 1-[(2-fluorophenyl)methyl]-N-[(6S)-2-[-(3-methoxyazetidin-1-yl)ethyl]-4-methyl-5-oxo-7,8-dihydro-6H-pyrazolo[1,5-a][1,3]diazepin-6-yl]-1,2,4-triazole-3-carboxamide] has a Ki of 172 nM.

same assay, conditions: human RIP1 kinase domain (2-375), 50 uM ATP, 2 hours incubation, Transcreener ADP assay; read-out: RIP1 Ki

Compared with `CC(C)n1ncc2c1OC[C@H](NC(=O)c1nnc(Cc3ccccc3)[nH]1)C(=O)N2` [Example 197, (S)-5-benzyl-N-(1-isopropyl-5-oxo-4,5,6,7-tetrahydro-1H-pyrazolo [3,4-b][1,4]oxazepin-6-yl)-4H-1,2,4-triazole-3-carboxamide], `CN1C(=O)[C@@H](NC(=O)c2nnc(Cc3ccccc3)[nH]2)COc2c1cnn2C` [Example 181, (S)-5-benzyl-N-(1,4-dimethyl-5-oxo-4,5,6,7-tetrahydro-1H-pyrazolo[3,4-b][1,4]oxazepin-6-yl)-4H-1,2,4-triazole-3-carboxamide] is 54-fold lower in Ki: 5100 nM for the first, 93.6 nM for the second.

`CN1C(=O)[C@@H](NC(=O)c2cc3c(cn2)CO[C@]3(C)CC(F)(F)F)COc2ccccc21` [Example 161, (R)-1-methyl-N-((S)-5-methyl-4-oxo-2,3,4,5-tetrahydrobenzo[b][1,4]oxazepin-3-yl)-1-(2,2,2-trifluoroethyl)-1,3-dihydrofuro[3,4-c]pyridine-6-carboxamide] showed a Ki of 8.9 nM.

same assay, conditions: human RIP1 kinase domain (2-375), Transcreener ADP assay, 50 uM ATP, 2 hours incubation; read-out: RIP1 Ki

Compared with `CN1C(=O)[C@@H](NC(=O)c2n[nH]c3ncc(C(F)(F)F)cc23)COc2ccccc21` [Example 279, (S)—N-(5-methyl-4-oxo-2,3,4,5-tetrahydrobenzo[b][1,4]oxazepin-3-yl)-5-(trifluoromethyl)-1H-pyrazolo[3,4-b]pyridine-3-carboxamide], `CN1C(=O)[C@@H](NC(=O)c2n[nH]c3ncc(C4CC4)cc23)COc2ccccc21` [Example 239, (S)-5-cyclopropyl-N-(5-methyl-4-oxo-2,3,4,5-tetrahydrobenzo[b][1,4]oxazepin-3-yl)-1H-pyrazolo[3,4-b]pyridine-3-carboxamide] is 2.9-fold higher in Ki: 98.1 nM for the first, 289 nM for the second. The first binds more tightly here.

Compared with `Cc1nn2c(c1C)N(C)C(=O)[C@@H](NC(=O)c1ncn(Cc3ccc(F)c(F)c3)n1)CC2` [Example 273, (S)-1-(3,4-difluorobenzyl)-N-(2,3,4-trimethyl-5-oxo-5,6,7,8-tetrahydro-4H-pyrazolo[1,5-a][1,3]diazepin-6-yl)-1H-1,2,4-triazole-3-carboxamide], `CC[C@@]1(C)OCc2cnc(C(=O)N[C@H]3CCn4nc([C@@H]5CC5(F)F)cc4N(C)C3=O)cc21` [Example 325, (R)—N—((S)-2-((S)-2,2-difluorocyclopropyl)-4-methyl-5-oxo-5,6,7,8-tetrahydro-4H-pyrazolo[1,5-a][1,3]diazepin-6-yl)-1-ethyl-1-methyl-1,3-dihydrofuro[3,4-c]pyridine-6-carboxamide] is 72-fold higher in Ki: 46.7 nM for the first, 3340 nM for the second. The first binds more tightly here.

same assay, conditions: tight-binding apparent inhibition constant; human RIP1 kinase domain (2-375) 50 nM, 50 uM ATP, 2 hours; read-out: Ki

Going from `Cc1cc2n(n1)CC[C@H](NC(=O)c1ncn(CC3CCCO3)n1)C(=O)N2C` (stereo partly drawn) [Example 474, N-(6S)-2,4-dimethyl-5-oxo-7,8-dihydro-6H-pyrazolo[1,5-a][1,3]diazepin-6-yl-1-(tetrahydrofuran-2-ylmethyl)-1,2,4-triazole-3-carboxamide] to `Cc1cc2n(n1)CC[C@H](NC(=O)c1ncn(CC3CC(C)(C)C3)n1)C(=O)N2C` [Example 555, 1-[(3,3-dimethylcyclobutyl)methyl]-N-(6S)-2,4-dimethyl-5-oxo-7,8-dihydro-6H-pyrazolo[1,5-a][1,3]diazepin-6-yl-1,2,4-triazole-3-carboxamide], the Ki falls from 1300 nM to 43 nM (30-fold).

Compared with `Cc1cc(F)c2c(c1)OC[C@H](NC(=O)c1nc3n(n1)CCO[C@H]3c1ccccc1)C(=O)N2` [Example 642, (8S)-8-phenyl-N-[(3S)-6-fluoro-8-methyl-4-oxo-3,5-dihydro-2H-1,5-benzoxazepin-3-yl]-6,8-dihydro-5H-[1,2,4]triazolo[5,1-c][1,4]oxazine-2-carboxamide], `Cc1cc(F)c2c(c1)OC[C@H](NC(=O)c1nc3n(n1)[C@@H](C(F)(F)F)CCC3)C(=O)N2` (single isomer, unassigned) [Example 427] is 18-fold higher in Ki: 12 nM for the first, 210 nM for the second.

`Cc1cc2n(n1)CC[C@H](NC(=O)c1ncc3c(n1)C(C)(CC(F)(F)F)OC3)C(=O)N2C` (stereo partly drawn) [Example 487, 7-methyl-N-[(6S)-2,4-dimethyl-5-oxo-7,8-dihydro-6H-pyrazolo[1,5-a][1,3]diazepin-6-yl]-7-(2,2,2-trifluoroethyl)-5H-furo[3,4-d]pyrimidine-2-carboxamide] and `CCCC1(C)OCc2cnc(C(=O)N[C@H]3CCn4nccc4N(C)C3=O)nc21` (stereo partly drawn) [Example 566, 7-methyl-7-propyl-N-[(6S)-4-methyl-5-oxo-7,8-dihydro-6H-pyrazolo[1,5-a][1,3]diazepin-6-yl]-5H-furo[3,4-d]pyrimidine-2-carboxamide] are within 1.5-fold of each other in Ki: 370 nM for the first, 480 nM for the second.

Going from `CN1C(=O)[C@@H](NC(=O)c2ncn(Cc3cccc(Cl)c3Cl)n2)CCn2nc(C(F)(F)F)cc21` [Example 534] to `CN1C(=O)[C@@H](NC(=O)c2ncn(Cc3ccc(F)cc3)n2)CCn2nc(C(F)(F)F)cc21` [Example 525], the Ki rises from 7.6 nM to 46 nM (6.1-fold). The first binds more tightly here.

First: CCC[C@@H]1CCCc2nc(C(=O)N[C@H]3COc4cc(F)cc(F)c4NC3=O)nn21 (single isomer, unassigned) [Example 445]
Second: O=C(N[C@H]1COc2cc(F)cc(F)c2NC1=O)c1nc2n(n1)[C@H](C(F)(F)F)CCC2 (single isomer, unassigned) [Example 432]
The Ki of the first is 3.7-fold lower: 3.47 nM for the first, 12.7 nM for the second. The first binds more tightly here.

First: CCC[C@@]1(C)OCc2cnc(C(=O)N[C@H]3COc4cc(F)cc(F)c4NC3=O)nc21 [Example 620, (7R)-7-methyl-7-propyl-N-[(3S)-6,8-difluoro-4-oxo-3,5-dihydro-2H-1,5-benzoxazepin-3-yl]-5H-furo[3,4-d]pyrimidine-2-carboxamide]
Second: CC[C@H]1CCc2nc(C(=O)N[C@H]3COc4ccccc4N(C)C3=O)nn21 (single isomer, unassigned) [Example 358]
The Ki of the first is 1.6-fold higher: 14 nM for the first, 9 nM for the second. The second binds more tightly here.

Compared with `CN1C(=O)[C@@H](NC(=O)c2ncn(CC3CCOC3)n2)CCn2nc(C3CC3)cc21` (stereo partly shown) [Example 480], `CCC1CCc2nc(C(=O)N[C@H]3CCn4nccc4N(C)C3=O)nn21` (stereo partly drawn) [Example 351, 5-ethyl-N-[(6S)-4-methyl-5-oxo-7,8-dihydro-6H-pyrazolo[1,5-a][1,3]diazepin-6-yl]-6,7-di hydro-5H-pyrrolo[1,2-b][1,2,4]triazole-2-carboxamide] is 6.6-fold lower in Ki: 2600 nM for the first, 394 nM for the second.

First: Cc1cc2n(n1)CC[C@H](NC(=O)c1nnn(Cc3ccccc3)n1)C(=O)N2C [Example 541, 2-benzyl-N-(6S)-2,4-dimethyl-5-oxo-7,8-dihydro-6H-pyrazolo[1,5-a][1,3]diazepin-6-yltetrazole-5-carboxamide]
Second: CN1C(=O)[C@@H](NC(=O)c2nnc(Cc3ccccc3)[nH]2)CCn2nc([C@H]3CC3(F)F)cc21 (racemic) [Example 672, 5-benzyl-N-[rac-(6S)-4-methyl-5-oxo-2-[rac-(1R)-2,2-difluorocyclopropyl]-7,8-dihydro-6H-pyrazolo[1,5-a] [1,3]diazepin-6-yl]-4H-1,2,4-triazole-3-carboxamide]
The Ki of the first is 11-fold lower: 5 nM for the first, 56 nM for the second. The first binds more tightly here.
